According to the supplement of paper PMC11061612:

Tests used:
Experiment in all cases: Bliss excess, mean over the matrix (fraction); higher = more synergy
[1] = system: AM-38 (Glioblastoma)
Method in brief: (§1)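 Bliss excess equals the observed combination effect minus the expected value EA + EB − EA·EB, where EA and EB are the effects of each agent alone. Combination Emax is the second-highest inhibition within the matrix. Inhibition was scaled from CellTiter-Glo 2.0 luminescence, with 0 set by vehicle wells and 1 by blank wells, after 72 hours of two-drug dosing of cells plated in 1536-well plates.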

[2] = system: BHT-101 (Thyroid Gland Carcinoma)
Method in brief: as §1

[3] = system: BxPC-3 (Pancreatic Carcinoma)
Method in brief: as §1

[4] = system: IA-LM (Non-Small Cell Lung Carcinoma)
Method in brief: as §1

[5] = system: IST-MEL1 (Melanoma)
Method in brief: as §1

[6] = system: KP-4 (Pancreatic Carcinoma)
Method in brief: as §1

[7] = system: MDA-MB-415 (Breast Carcinoma)
Method in brief: as §1

[8] = system: MONO-MAC-6 (Acute Myeloid Leukemia)
Method in brief: as §1

[9] = system: NAMALWA (Burkitt's Lymphoma)
Method in brief: as §1

[10] = system: NCI-H2373 (Mesothelioma)
Method in brief: as §1

[11] = system: PL4 (Pancreatic Carcinoma)
Method in brief: as §1

[12] = system: Raji (Burkitt's Lymphoma)
Method in brief: as §1

[13] = system: SCC-4 (Oral Cavity Carcinoma)
Method in brief: as §1

[14] = system: SK-CO-1 (Colorectal Carcinoma)
Method in brief: as §1

[15] = system: SNU-423 (Hepatocellular Carcinoma)
Method in brief: as §1

[16] = system: SUP-M2 (T-Cell Non-Hodgkin's Lymphoma)
Method in brief: as §1

[17] = system: SiHa (Cervical Carcinoma)
Method in brief: as §1

[18] = system: T84 (Colorectal Carcinoma)
Method in brief: as §1

[19] = system: WM35 (Melanoma)
Method in brief: as §1

[20] = system: ZR-75-30 (Breast Carcinoma)
Method in brief: as §1

Row | Compound | Bliss excess [1] | Bliss excess [2] | Bliss excess [3] | Bliss excess [4] | Bliss excess [5] | Bliss excess [6] | Bliss excess [7] | Bliss excess [8] | Bliss excess [9] | Bliss excess [10] | Bliss excess [11] | Bliss excess [12] | Bliss excess [13] | Bliss excess [14] | Bliss excess [15] | Bliss excess [16] | Bliss excess [17] | Bliss excess [18] | Bliss excess [19] | Bliss excess [20]
1 | COc1cc2c(cc1OCCCCCOc1cc3c(cc1OC)C(=O)N1C=C(C)C[C@H]1C=N3)N=C[C@@H]1CC(C)=CN1C2=O [SG3199] + O=C(c1cc(Cc2n[nH]c(=O)c3ccccc23)ccc1F)N1CCN(C(=O)C2CC2)CC1 [Olaparib] (first compound max 0.001 µM, 7x7, partner max 10 µM) | -0.0032 | -0.009 | -0.0403 | -0.0401 | -0.0196 | -0.0366 | -0.0333 | -0.015 | 0.0018 | 0.0054 | 0.0304 | 0.0002 | -0.0545 | -0.0444 | -0.0238 | 0.0274 | -0.0291 | -0.0279 | -0.0129 | -0.001
2 | CCc1c2c(nc3ccc(O)cc13)-c1cc3c(c(=O)n1C2)COC(=O)[C@]3(O)CC [SN-38] + CN(C)CCCOc1ccc(-c2ccc3ncc4c(c3c2)n(C2CCOCC2)c(=O)n4C)cn1 [AZD0156] (first compound max 0.3 µM, 7x7, partner max 1 µM) | 0.149 | 0.0664 | 0.0025 | -0.0369 | -0.0785 | 0.0541 | -0.0262 | 0.0746 | 0.0402 | -0.0037 | 0.0253 | -0.0003 | 0.0021 | -0.0032 | -0.0165 | 0.061 | -0.0241 | 0.108 | 0.0082 | -0.194
3 | C[C@@H](c1ccc2nccn2c1)n1nnc2ncc(-c3cnn(C)c3)nc21 [Savolitinib] + CC1(C)CCC(CN2CCN(c3ccc(C(=O)NS(=O)(=O)c4ccc(NCC5CCOCC5)c([N+](=O)[O-])c4)c(Oc4cnc5[nH]ccc5c4)c3)CC2)=C(c2ccc(Cl)cc2)C1 [Venetoclax] (first compound max 1 µM, 7x7, partner max 1 µM) | -0.0839 | -0.0341 | -0.0371 | -0.0963 | -0.0306 | -0.0556 | -0.0258 | 0.0005 | -0.0098 | -0.0512 | -0.105 | -0.0114 | -0.0649 | -0.0491 | -0.0205 | -0.0238 | -0.0536 | -0.0649 | -0.065 | -0.0361
4 | C[C@@H](c1ccc2nccn2c1)n1nnc2ncc(-c3cnn(C)c3)nc21 [Savolitinib] + Cc1c2c(nn1C)CSCc1cc(n(C)n1)CSc1cc(c3ccccc3c1)OCCCc1c(C(=O)O)n(C)c3c-2c(Cl)ccc13 [AZD5991] (first compound max 1 µM, 7x7, partner max 1 µM) | -0.0194 | -0.0307 | -0.0496 | 0.0086 | -0.0243 | -0.0204 | -0.0462 | 0.0346 | -0.05 | -0.0618 | -0.0492 | -0.0383 | -0.0295 | -0.037 | -0.0364 | -0.0292 | -0.0335 | -0.0652 | -0.0503 | -0.0388
5 | Cn1cnc2c(F)c(Nc3ccc(Br)cc3Cl)c(C(=O)NOCCO)cc21 [Selumetinib] + C=CCn1c(=O)c2cnc(Nc3ccc(N4CCN(C)CC4)cc3)nc2n1-c1cccc(C(C)(C)O)n1 [AZD1775] (first compound max 10 µM, partner max 1 µM) | -0.0541 | -0.0417 | 0.0243 | -0.0017 | 0.0242 | -0.0377 | -0.0754 | -0.013 | -0.0104 | -0.101 | -0.0685 | -0.041 | -0.0376 | -0.0579 | -0.0078 | 0.0582 | -0.0422 | -0.0495 | 0.0038 | -0.0587
6 | Cn1cnc2c(F)c(Nc3ccc(Br)cc3Cl)c(C(=O)NOCCO)cc21 [Selumetinib] + CC(C)n1c(=O)n(C)c2cnc3cc(F)c(-c4ccc(OCCCN5CCCCC5)nc4)cc3c21 [AZD1390] (first compound max 10 µM, 7x7, partner max 0.3 µM) | -0.0389 | -0.0429 | -0.0518 | -0.0102 | -0.013 | -0.0571 | -0.047 | -0.0166 | -0.0102 | -0.0044 | 0.0102 | -0.0189 | -0.0669 | -0.0168 | -0.0026 | 0.007 | -0.018 | -0.0265 | -0.0551 | -0.044
7 | Cn1cnc2c(F)c(Nc3ccc(Br)cc3Cl)c(C(=O)NOCCO)cc21 [Selumetinib] + CCN(CCO)CCCOc1ccc2c(Nc3cc(CC(=O)Nc4cccc(F)c4)[nH]n3)ncnc2c1 [AZD2811] (first compound max 10 µM, 7x7, partner max 1 µM) | -0.0208 | -0.0267 | -0.057 | -0.0353 | -0.0203 | 0.0217 | -0.0064 | 0.003 | 0.0244 | -0.0082 | 0.0097 | -0.0166 | 0.0003 | -0.0098 | -0.0263 | -0.001 | -0.0355 | -0.0479 | -0.0566 | -0.0544
